Experimental data from patent US20230406831A1, “COMPOUNDS AND METHODS OF INHIBITING BACTERIAL CHAPERONIN SYSTEMS” (THE TRUSTEES OF INDIANA UNIVERSITY, priority 2020, published 2023).

These molecules were tested on S. aureus (assay: S. aureus bacterial proliferation assay). Conditions: Staphylococcus aureus, read-out: S. aureus Proliferation EC50.
Assay type: cell-based
Protocol: Evaluation of compounds for inhibition of bacterial cell proliferation.
Growth Media: S. aureus bacteria were grown in Brain Heart Infusion (BHI) broth/agar (Becton, Dickinson and Company). All liquid cultures were grown in BHI media supplemented with 25 mg/L Ca^2+ and 12.5 mg/L Mg^2+ to mimic free physiological concentrations of these cations. A 10 mg/mL Ca^2+ stock solution was prepared by dissolving 3.68 g of CaCl2·2H^2O in 100 mL of deionized water, and a 10 mg/mL Mg^2+ stock solution was prepared by dissolving 8.36 g of […] in 100 mL deionized water. Both stock solutions were filter-sterilized using 0.2 μm pore size cellulose-acetate filters. 2.5 mL of the sterile 10 mg/mL Ca^2+ stock and 1.25 mL of the sterile 10 mg/mL Mg^2+ stock solutions were added per 1 L of autoclaved BHI medium to obtain 25 mg/L Ca^2+ and 12.5 mg/L Mg^2+ ions, respectively.
General Assay Protocol: Stock bacterial cultures were streaked onto BHI agar plates and grown overnight at 37° C. Fresh aliquots of broth were inoculated with single bacterial colonies and the cultures were grown overnight at 37° C. with shaking (240 rpm) in cation adjusted BHI media. The following morning, the overnight cultures were sub-cultured (1:5 dilution) into fresh aliquots of cation adjusted BHI media and grown at 37° C. for 1-2 hours with shaking. After 2 h, cultures were diluted into fresh media to achieve final OD600 readings of 0.017. Aliquots of these diluted cultures (30 μL) were added to clear, flat-bottom, 384-well polystyrene plates that were stamped with 0.5 μL of test compounds in 20 μL media. Compounds were evaluated in dose-response format where the inhibitor concentration range during the proliferation assay was 100 μM to 46 nM (3-fold dilution series). Plates were sealed with “Breathe Easy” oxygen permeable membranes (Diversified Biotech) and left to incubate at 37° C. without shaking (stagnant assay). OD600 nm readings were taken generally at 6-8 h, when bacteria had reached log-phase growth. A second set of baseline control plates were prepared analogously, but without any bacteria added, to correct for possible compound absorbance and/or precipitation. Plates were then read at 600 nm using a Molecular Devices SpectraMax Plus384 microplate reader. EC50 values for the test compounds were obtained by plotting the OD600 results in GraphPad Prism and analyzing by non-linear regression using the log(inhibitor) vs. response (variable slope) equation. For results, see Tables 1, 2, and 3.

Structure (SMILES) | EC50
Cc1cc(C(C#N)c2ccc(Cl)cc2)c(Cl)cc1NC(=O)c1cc(Cl)ccc1O (centres unmarked) [Compound 58, 5-chloro-N-(5-chloro-4-((4-chlorophenyl)(cyano)methyl)-2-methylphenyl)-2-hydroxybenzamide] | 140 nM
O=C(Nc1ccc(Oc2ccc(Cl)cc2)c(Cl)c1)c1cc(I)cc(I)c1O [Rafoxanide, reference compound] | 300 nM
Cc1cc(C(C#N)c2ccc(Cl)cc2)c(Cl)cc1NC(=O)c1ccccc1O (centres unmarked) [Compound 64, N-(5-chloro-4-((4-chlorophenyl)(cyano)methyl)-2-methylphenyl)-2-hydroxybenzamide] | 280 nM

Same assay, conditions: Staphylococcus aureus; Table 1; cation adjusted BHI media, OD600 at 6-8 h; read-out: S. aureus Proliferation EC50

Structure (SMILES) | EC50
O=C(Nc1ccc([N+](=O)[O-])cc1Cl)c1cc(Cl)ccc1O [Niclosamide, reference compound] | 74 nM
O=C(Nc1ccc(Sc2nc3ccccc3s2)c(Cl)c1)c1cc(Br)cc(Br)c1O [Compound 1, reference compound] | 300 nM
O=C(Nc1cc(Cl)cc(Cl)c1O)c1c(O)c(Cl)cc(Cl)c1Cl [Oxyclosanide, reference compound] | 520 nM

Same assay, conditions: Staphylococcus aureus; Table 2; cation adjusted BHI media, OD600 at 6-8 h; read-out: S. aureus Proliferation EC50

Structure (SMILES) | EC50
Cc1cc(C(C#N)c2ccc(Cl)cc2)c(Cl)cc1NC(=O)c1cc(Br)cc(Br)c1O (centres unmarked) [Compound 46, 3,5-dibromo-N-(5-chloro-4-((4-chlorophenyl)(cyano)methyl)-2-methylphenyl)-2-hydroxybenzamide] | 220 nM
Cc1cc(C(C#N)c2ccc(Cl)cc2)c(Cl)cc1NC(=O)c1cccc(Cl)c1O (centres unmarked) [Compound 54, 3-chloro-N-(5-chloro-4-((4-chlorophenyl)(cyano)methyl)-2-methylphenyl)-2-hydroxybenzamide] | 560 nM

Same assay, conditions: Staphylococcus aureus; Table 3; cation adjusted BHI media, OD600 at 6-8 h; read-out: S. aureus Proliferation EC50

Structure (SMILES) | EC50
COc1ccc(NC(=O)c2cc(Cl)ccc2O)cc1 [Compound 113, 5-chloro-2-hydroxy-N-(4-methoxyphenyl)benzamide] | 31000 nM
COc1ccc(Cl)cc1C(=O)Nc1ccc(O)cc1 [Compound 114, 5-chloro-N-(4-hydroxyphenyl)-2-methoxybenzamide] | > 100000 nM
O=C(Nc1ccc(Cc2ccccc2)cc1)c1cc(Cl)ccc1O [Compound 99, N-(4-benzylphenyl)-5-chloro-2-hydroxybenzamide] | > 100000 nM
O=C(Nc1ccc(Oc2ccccc2)c(Cl)c1)c1cc(Cl)ccc1O [Compound 91, 5-chloro-N-(3-chloro-4-phenoxyphenyl)-2-hydroxybenzamide] | 210 nM
COc1ccc(Cl)cc1C(=O)Nc1ccc(CCc2ccccc2)cc1 [Compound 100, 5-chloro-2-methoxy-N-(4-phenethylphenyl)benzamide] | > 100000 nM
O=C(Nc1ccc(Oc2ccccc2)cc1)c1cc(Cl)ccc1O [Compound 93, 5-chloro-2-hydroxy-N-(4-phenoxyphenyl)benzamide] | 360 nM
COc1ccc(Cl)cc1C(=O)Nc1ccc(Cc2ccccc2)cc1 [Compound 98, N-(4-benzylphenyl)-5-chloro-2-methoxybenzamide] | > 100000 nM
COc1ccc(Cl)cc1C(=O)Nc1ccc(CC#N)cc1 [Compound 110, 5-chloro-N-(4-(cyanomethyl)phenyl)-2-methoxybenzamide] | > 100000 nM
COc1ccc(NC(=O)c2cc(Cl)ccc2OC)cc1 [Compound 112, 5-chloro-2-methoxy-N-(4-methoxyphenyl)benzamide] | > 100000 nM
COC(=O)c1ccc(NC(=O)c2cc(Cl)ccc2O)cc1 [Compound 107, methyl 4-(5-chloro-2-hydroxybenzamido)benzoate] | 940 nM
O=C(Nc1ccc(CCc2ccccc2)cc1)c1cc(Cl)ccc1O [Compound 101] | 83000 nM
COc1ccc(Cl)cc1C(=O)Nc1ccc(Oc2ccc(Cl)cc2)c(Cl)c1 [Compound 86, 5-chloro-N-(3-chloro-4-(4-chlorophenoxy)phenyl)-2-methoxybenzamide] | > 100000 nM
N#CC(c1ccccc1)c1ccc(NC(=O)c2cc(Cl)ccc2O)cc1 (centres unmarked) [Compound 85, 5-chloro-N-(4-(cyano(phenyl)methyl)phenyl)-2-hydroxybenzamide] | 1100 nM
O=C(Nc1ccc(O)cc1)c1cc(Cl)ccc1O [Compound 115, 5-chloro-2-hydroxy-N-(4-hydroxyphenyl)benzamide] | > 100000 nM
O=C(Nc1ccc(Oc2ccc(Cl)cc2)c(Cl)c1)c1cc(Cl)ccc1O [Compound 87, 5-chloro-N-(3-chloro-4-(4-chlorophenoxy)phenyl)-2-hydroxybenzamide] | 170 nM

Same assay, conditions: Table 2; cation adjusted BHI media, OD600 at 6-8 h

Structure (SMILES) | S. aureus Proliferation EC50
Cc1cc(C(C#N)c2ccc(Cl)cc2)c(Cl)cc1NC(=O)c1ccc([N+](=O)[O-])cc1 (centres unmarked) [Compound 69, N-(5-chloro-4-((4-chlorophenyl)(cyano)methyl)-2-methylphenyl)-4-nitrobenzamide] | > 100000 nM
COc1ccccc1C(=O)Nc1cc(Cl)c(C(C#N)c2ccc(Cl)cc2)cc1C (centres unmarked) [Compound 61, N-(5-chloro-4-((4-chlorophenyl)(cyano)methyl)-2-methylphenyl)-2-methoxybenzamide] | > 100000 nM
COc1cc(Cl)ccc1C(=O)Nc1cc(Cl)c(C(C#N)c2ccc(Cl)cc2)cc1C (centres unmarked) [Compound 55, 4-chloro-N-(5-chloro-4-((4-chlorophenyl)(cyano)methyl)-2-methylphenyl)-2-methoxybenzamide] | > 100000 nM
Cc1cc(C(C#N)c2ccc(Cl)cc2)c(Cl)cc1NC(=O)c1ccccc1F (centres unmarked) [Compound 79, N-(5-chloro-4-((4-chlorophenyl)(cyano)methyl)-2-methylphenyl)-2-fluorobenzamide] | > 100000 nM
COc1c(Cl)cc(Cl)cc1C(=O)Nc1cc(Cl)c(C(C#N)c2ccc(Cl)cc2)cc1C (centres unmarked) [Compound 51, 3,5-dichloro-N-(5-chloro-4-((4-chlorophenyl)(cyano)methyl)-2-methylphenyl)-2-methoxybenzamide] | > 100000 nM
COc1c(Cl)cccc1C(=O)Nc1cc(Cl)c(C(C#N)c2ccc(Cl)cc2)cc1C (centres unmarked) [Compound 53, 3-chloro-N-(5-chloro-4-((4-chlorophenyl)(cyano)methyl)-2-methylphenyl)-2-methoxybenzamide] | > 100000 nM
COc1cccc(C(=O)Nc2cc(Cl)c(C(C#N)c3ccc(Cl)cc3)cc2C)c1 (centres unmarked) [Compound 62, N-(5-chloro-4-((4-chlorophenyl)(cyano)methyl)-2-methylphenyl)-3-methoxybenzamide] | > 100000 nM
Cc1cc(C(C#N)c2ccc(Cl)cc2)c(Cl)cc1NC(=O)c1cccc(O)c1 (centres unmarked) [Compound 65, N-(5-chloro-4-((4-chlorophenyl)(cyano)methyl)-2-methylphenyl)-3-hydroxybenzamide] | 1800 nM
Cc1cc(C(C#N)c2ccc(Cl)cc2)c(Cl)cc1NC(=O)c1ccccc1[N+](=O)[O-] (centres unmarked) [Compound 67, N-(5-chloro-4-((4-chlorophenyl)(cyano)methyl)-2-methylphenyl)-2-nitrobenzamide] | > 100000 nM
Cc1cc(C(C#N)c2ccc(Cl)cc2)c(Cl)cc1NC(=O)c1cccc(N)c1 (centres unmarked) [Compound 71, 3-amino-N-(5-chloro-4-((4-chlorophenyl)(cyano)methyl)-2-methylphenyl)benzamide] | > 100000 nM
COc1c(Br)cccc1C(=O)Nc1cc(Cl)c(C(C#N)c2ccc(Cl)cc2)cc1C (centres unmarked) [Compound 47, 3-bromo-N-(5-chloro-4-((4-chlorophenyl)(cyano)methyl)-2-methylphenyl)-2-methoxybenzamide] | > 100000 nM
COc1ccc(Br)cc1C(=O)Nc1cc(Cl)c(C(C#N)c2ccc(Cl)cc2)cc1C (centres unmarked) [Compound 49, 5-bromo-N-(5-chloro-4-((4-chlorophenyl)(cyano)methyl)-2-methylphenyl)-2-methoxybenzamide] | > 100000 nM
COc1ccc(C)cc1C(=O)Nc1cc(Cl)c(C(C#N)c2ccc(Cl)cc2)cc1C (centres unmarked) [Compound 59, N-(5-chloro-4-((4-chlorophenyl)(cyano)methyl)-2-methylphenyl)-2-methoxy-5-methylbenzamide] | > 100000 nM
Cc1cc(C(C#N)c2ccc(Cl)cc2)c(Cl)cc1NC(=O)c1cccc(Br)c1 (centres unmarked) [Compound 74, 3-bromo-N-(5-chloro-4-((4-chlorophenyl)(cyano)methyl)-2-methylphenyl)benzamide] | > 100000 nM
Cc1cc(C(C#N)c2ccc(Cl)cc2)c(Cl)cc1NC(=O)c1ccccc1N (centres unmarked) [Compound 70, 2-amino-N-(5-chloro-4-((4-chlorophenyl)(cyano)methyl)-2-methylphenyl)benzamide] | > 100000 nM
